US8975265B2, “Substituted imidazo[1,2-a]pyrimidines and —pyridines” (Bayer Intellectual Property GmbH, priority 2010, dated 2015)

Tests used:
[1] = molecular target: His-tagged human recombinant kinase full-length Akt1 (Homo sapiens (Human), UniProt P31749); assay: Akt1 kinase assay (TR-FRET); type: biochemical; conditions: 10 μM ATP; read-out: Akt1, median IC50
Description: Biological Assay 1.0: Akt1 Kinase Assay
Akt1 inhibitory activity of compounds of the present invention was quantified employing the Akt1 TR-FRET assay as described in the following paragraphs.
As substrate for the kinase reaction the biotinylated peptide biotin-Ahx-[…] (C-terminus in amide form) was used which can be purchased e.g. from the company Biosynthan GmbH (Berlin-Buch, Germany).
For the assay 50 nl of a 100 fold concentrated solution of the test compound in DMSO was pipetted into a black low volume 384 well microtiter plate (Greiner Bio-One, Frickenhausen, Germany), 2 μl of a solution of Akt1 in assay buffer [50 mM TRIS/HCl pH 7.5, 5 mM MgCl2, 1 mM dithiothreitol, 0.02% (v/v) Triton X-100 (Sigma)] were added and the mixture was incubated for 15 min at 22° C. to allow prebinding of the test compounds to the enzyme before the start of the kinase reaction. […] The concentration of Akt1 in the assay was adjusted depending of the activity of the enzyme lot and was chosen appropriate to have the assay in the linear range, typical enzyme concentrations were in the range of about 0.05 ng/μl (final conc. in the 5 μl assay volume).
The resulting mixture was incubated 1 h at 22° C. to allow the binding of the biotinylated phosphorylated peptide to the streptavidine-XL665 and the antibodies. Subsequently the amount of phosphorylated substrate was evaluated by measurement of the resonance energy transfer from the anti-mouse-IgG-Eu-Chelate to the streptavidine-XL665.

[2] = system: p-AKT1/2/3-S473 in KPL4 breast tumour cell line; assay: Cellular p-AKT1/2/3-S473 assay; type: cell-based; conditions: KPL4 breast tumour cell line, 2 hours treatment; read-out: pAKT-S743 median IC50
Description: The molecular mechanism of action was investigated in a set of experiments to assess the inhibition of the PI3K-AKT-mTOR pathway in responsive cell lines such as KPL4 breast tumour cell line (PIK3CAH1047R, HER20/E and hormone independent). The phospho-substrates of PI3K-AKT-mTOR axis were used as the read-outs to reflect pathway inhibition. Cells were seeded at 60-80% confluency per well in 96-well cell culture plates. After overnight incubation at 37° C. 5% CO2, cells were treated with compounds and vehicle at 37° C. for 2 hours. […] All measurements where at least done in duplicates and confirmed by independent repetition.
Alternatively pAKT-S473 was measured using the “Akt Duplex” of the MULTI-SPOT® Assay System (Fa. Meso Scale Discovery, Cat# N41100B-1) following manufacturers instructions. Each assay used 20 μg of protein extract and measured total AKT and p-AKT content simultaneously in one well. All measurements where at least done in duplicates and confirmed by independent repetition. Values for P-AKT are expressed as percentage of P-AKT level compared to total-AKT content of the extracts.

[3] = system: KPL-4 breast cancer cell line; assay: Tumor cell proliferation assay (CellTiter-Glo, 72 h), KPL-4; type: cell-based; conditions: KPL4, 72h drug exposure
Description: Biological Assay 4.0: Tumor Cell Proliferation Assays
Compounds were tested in a cell-based assay that measures the capacity of the compounds to inhibit tumour cell proliferation following a 72h drug exposure. Cell viability is determined using CellTiter-Glow® (CTG, Promega, cat# G7571/2/3). The CellTiter-Glo® Luminescent Cell Viability Assay is a homogeneous method to determine the number of viable cells in culture. Detection is based on using the luciferase reaction to measure the amount of ATP from viable cells. The amount of ATP in cells correlates with cell viability. Within minutes after a loss of membrane integrity, cells lose the ability to synthesize ATP, and endogenous ATPases destroy any remaining ATP; thus the levels of ATP fall precipitously.
For each cell line assayed, cells were plated onto a separate plate for determination of […] at t=0 hour and t=72 hour time points. Following overnight incubation at 37° C., chemiluminescence values for the t=0 samples were determined after adding 10 μl medium and 100 μl CTG solution according to manufacture protocol. Plates for the t=72 hour time points were treated with compounds diluted into growth medium at ten times final concentration added in 10 μL to the cell culture plate. Cells were then incubated for 72 hours at 37° C. Chemiluminescence values for the t=72 hour samples were determined. […] Experiments were controlled using a reference compound as standard.

Sequence of His-tagged human recombinant kinase full-length Akt1 (P31749 whole entry): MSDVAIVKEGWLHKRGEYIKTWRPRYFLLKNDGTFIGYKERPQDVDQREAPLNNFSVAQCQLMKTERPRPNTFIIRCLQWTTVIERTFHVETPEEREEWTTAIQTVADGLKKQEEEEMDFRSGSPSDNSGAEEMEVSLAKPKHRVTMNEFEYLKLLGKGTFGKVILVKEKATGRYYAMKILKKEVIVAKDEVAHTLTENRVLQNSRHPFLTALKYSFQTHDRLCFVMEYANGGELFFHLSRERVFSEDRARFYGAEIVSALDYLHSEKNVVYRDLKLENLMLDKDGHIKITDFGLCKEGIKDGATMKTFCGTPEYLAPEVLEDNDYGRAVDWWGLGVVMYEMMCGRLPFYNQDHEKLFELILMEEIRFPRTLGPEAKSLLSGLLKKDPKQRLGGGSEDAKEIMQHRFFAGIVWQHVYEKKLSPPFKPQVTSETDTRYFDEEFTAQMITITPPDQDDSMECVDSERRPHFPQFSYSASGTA

Compound | IC50 [1] | IC50 [2] | IC50 [3]
CCc1ccc2nc(-c3ccc(C4(N)CCC4)cc3)c(-c3ccccc3)n2c1 [Example 2-38] | 260 nM | 467 nM | 1900 nM
NC(=O)CCc1ccn2c(-c3ccccc3)c(-c3ccc(C4(N)CCC4)cc3)nc2c1 [Example 8-0, 3-{2-[4-(1-amino-cyclobutyl)-phenyl]-3-phenyl-imidazo[1,2-a]pyridin-7-yl}-propionamide] | 12700 nM | 1270 nM | 10000 nM
C#Cc1ccn2c(-c3ccccc3)c(-c3ccc(C4(N)CCC4)cc3)nc2c1 [Example 7-0, 1-[4-(7-ethynyl-3-phenyl-imidazo[1,2-a]pyridin-2-yl)-phenyl]-cyclobutylamine] | 1660 nM | 1770 nM | 2400 nM
NC1(c2ccc(-c3nc4cc(-c5nn[nH]n5)ccn4c3-c3ccccc3)cc2)CCC1 [Example 2-117] | 26 nM | 10000 nM | 10000 nM
COC(=O)c1ccn2c(-c3ccccc3)c(-c3ccc(C4(N)CCC4)cc3)nc2c1 [Example 2-35] | 226 nM | 975 nM | 5000 nM
COC(=O)COc1ccn2c(-c3ccccc3)c(-c3ccc(C4(N)CCC4)cc3)nc2c1 [Example 9-0, {2-[4-(1-amino-cyclobutyl)-phenyl]-3-phenyl-imidazo[1,2-a]pyridin-7-yloxy}-acetic acid methyl ester] | 158 nM | 923 nM | 2500 nM
COCCNC(=O)c1ccc2nc(-c3ccc(C4(N)CCC4)cc3)c(-c3ccccc3)n2c1 [Example 2-56] | 452 nM | 200 nM | 3400 nM
NC1(c2ccc(-c3nc4ccc(C(=O)NCCO)cn4c3-c3ccccc3)cc2)CCC1 [Example 2-55] | 1140 nM | 308 nM | 5500 nM
N#Cc1ccn2c(-c3ccccc3)c(-c3ccc(C4(N)CCC4)cc3)nc2c1 [Example 2-6] | 145 nM | 333 nM | 1600 nM
CN(C)C(=O)c1ccc2nc(-c3ccc(C4(N)CCC4)cc3)c(-c3ccccc3)n2c1 [Example 2-61] | 1900 nM | 781 nM | 9400 nM
NC1(c2ccc(-c3nc4c(-c5cn[nH]c5)cccn4c3-c3ccccc3)cc2)CCC1 [Example 2-50] | 99 nM | 297 nM | 1900 nM
Cc1cccn2c(-c3ccccc3)c(-c3ccc(C4(N)CCC4)cc3)nc12 [Example 2-5] | 100 nM | 209 nM | 4300 nM
CNC(=O)Nc1ccn2c(-c3ccccc3)c(-c3ccc(C4(N)CCC4)cc3)nc2c1 [Example 1-14] | 588 nM | 1170 nM | 9800 nM
NC1(c2ccc(-c3nc4cc(-c5ccc(F)cc5)ccn4c3-c3ccccc3)cc2)CCC1 [Example 2-34] | 989 nM | 1940 nM | 2200 nM
NC1(c2ccc(-c3nc4cc(-n5cccn5)ccn4c3-c3ccccc3)cc2)CCC1 [Example 1-11] | 102 nM | 37 nM | 1500 nM
C=Cc1ccn2c(-c3ccccc3)c(-c3ccc(C4(N)CCC4)cc3)nc2c1 [Example 2-108, 1-[4-(3-phenyl-7-vinyl-imidazo[1,2-a]pyridin-2-yl)-phenyl]-cyclobutylamine] | 1950 nM | 3100 nM | 10000 nM
NC1(c2ccc(-c3nc4ccc(-c5nn[nH]n5)cn4c3-c3ccccc3)cc2)CCC1 [Example 2-135] | 74 nM | 9810 nM | 10000 nM
NC1(c2ccc(-c3nc4cc(C(=O)O)ccn4c3-c3ccccc3)cc2)CCC1 [Example 2-120] | 550 nM | 8120 nM | 10000 nM
NC1(c2ccc(-c3nc4ccc(-c5ccncc5)cn4c3-c3ccccc3)cc2)CCC1 [Example 2-136] | 533 nM | 150 nM | 1900 nM

Compound | IC50 [1] | IC50 [2] | IC50 [3]
Cn1cncc1-c1ccn2c(-c3ccccc3)c(-c3ccc(C4(N)CCC4)cc3)nc2c1 [Example 2-116] | 236 nM | 63 nM | 1600 nM
NC1(c2ccc(-c3nc4cc(O)ccn4c3-c3ccccc3)cc2)CCC1 [Example 10-0, 2-[4-(1-amino-cyclobutyl)-phenyl]-3-phenyl-imidazo[1,2-a]pyridin-7-ol] | 1270 nM | 308 nM | 7900 nM
NC1(c2ccc(-c3nc4ccc(C(=O)NCCF)cn4c3-c3ccccc3)cc2)CCC1 [Example 2-54] | 423 nM | 83 nM | 1300 nM
NC1(c2ccc(-c3nc4c(O)cccn4c3-c3ccccc3)cc2)CCC1 [Example 5-1, 2-[4-(1-amino-cyclobutyl)-phenyl]-3-phenyl-imidazo[1,2-a]pyridin-8-ol] | 590 nM | 3480 nM | 10000 nM
NC1(c2ccc(-c3nc4cc(C5CC5)ccn4c3-c3ccccc3)cc2)CCC1 [Example 2-37] | 1640 nM | 441 nM | 1900 nM
CCc1cnc2nc(-c3ccc(C4(N)CCC4)cc3)c(-c3ccccc3)n2c1 [Example 2-33] | 379 nM | 187 nM | 1000 nM
CN(C)C(=O)COc1ccn2c(-c3ccccc3)c(-c3ccc(C4(N)CCC4)cc3)nc2c1 [Example 9-2] | 258 nM | 25 nM | 900 nM
COC(=O)COc1ccc2nc(-c3ccc(C4(N)CCC4)cc3)c(-c3ccccc3)n2c1 [Example 9-4] | 179 nM | 6470 nM | 3100 nM
COc1cc(COc2ccn3c(-c4ccccc4)c(-c4ccc(C5(N)CCC5)cc4)nc3n2)ccn1 [Example 2-28] | 179 nM | 114 nM | 1800 nM
NC(=O)/C=C/c1ccc2nc(-c3ccc(C4(N)CCC4)cc3)c(-c3ccccc3)n2c1 [Example 2-142] | 347 nM | 114 nM | 2600 nM
NC(=O)COc1ccn2c(-c3ccccc3)c(-c3ccc(C4(N)CCC4)cc3)nc2c1 [Example 9-1] | 397 nM | 90 nM | 1700 nM
C=Cc1ccc2nc(-c3ccc(C4(N)CCC4)cc3)c(-c3ccccc3)n2c1 [Example 2-48] | 300 nM | 1030 nM | 2500 nM
NC1(c2ccc(-c3nc4ccc(-c5cccnc5)cn4c3-c3ccccc3)cc2)CCC1 [Example 2-137] | 541 nM | 149 nM | 1700 nM
NC1(c2ccc(-c3nc4cc(-c5cc[nH]n5)ccn4c3-c3ccccc3)cc2)CCC1 [Example 2-112] | 153 nM | 66 nM | 1700 nM
CCNC(=O)c1ccc2nc(-c3ccc(C4(N)CCC4)cc3)c(-c3ccccc3)n2c1 [Example 2-62] | 376 nM | 93 nM | 1700 nM
NC1(c2ccc(-c3nc4cc(-c5ccncc5)ccn4c3-c3ccccc3)cc2)CCC1 [Example 2-109, 1-[4-(3-phenyl-7-pyridin-4-yl-imidazo[1,2-a]pyridin-2-yl)-phenyl]-cyclobutylamine] | 181 nM | 28 nM | 1500 nM
NC1(c2ccc(-c3nc4ccc(C(=O)NO)cn4c3-c3ccccc3)cc2)CCC1 [Example 2-59] | 257 nM | 236 nM | 3800 nM
NC1(c2ccc(-c3nc4ccc(-c5ccccn5)cn4c3-c3ccccc3)cc2)CCC1 [Example 2-138] | 530 nM | 541 nM | 2400 nM
